Laboratory results reported in ChEMBL document CHEMBL1201862, “PubChem BioAssay data set” (2004).
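Cells were grown in 96-well plates and exposed to each compound for 48 hours at five concentrations; endpoints were interpolated linearly between bracketing concentrations, or set to the highest concentration if not reached. GI50: concentration for 50% inhibition of growth.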 Activity calls are given as the source filed them. Cut-off read from the data, not from the text of the source: active = GI50 up to about 1.1 µM and inactive = higher.

Columns and labels:
Test in all cases: DTP human tumour cell line panel, 48 h
IGROV-1 = test system: IGROV-1
HOP-92 = test system: HOP-92
M14 = test system: M14
OVCAR-5 = test system: OVCAR-5
SK-MEL-2 = test system: SK-MEL-2
MDA-N = test system: MDA-N
HL-60 = test system: HL-60
DU-145 = test system: DU-145
U-251 = test system: U-251
OVCAR-8 = test system: OVCAR-8
SK-OV-3 = test system: SK-OV-3
RXF 393 = test system: RXF 393
TK-10 = test system: TK-10
ACHN = test system: ACHN
COLO 205 = test system: COLO 205
UACC-62 = test system: UACC-62
UO-31 = test system: UO-31
786-0 = test system: 786-0
HCT-116 = test system: HCT-116
SF-295 = test system: SF-295

Row | Compound | GI50 (IGROV-1) | GI50 (HOP-92) | GI50 (M14) | GI50 (OVCAR-5) | GI50 (SK-MEL-2) | GI50 (MDA-N) | GI50 (HL-60) | GI50 (DU-145) | GI50 (U-251) | GI50 (OVCAR-8) | GI50 (SK-OV-3) | GI50 (RXF 393) | GI50 (TK-10) | GI50 (ACHN) | GI50 (COLO 205) | GI50 (UACC-62) | GI50 (UO-31) | GI50 (786-0) | GI50 (HCT-116) | GI50 (SF-295)
1 | O=c1cc(-c2ccccc2)oc2ccc(Cl)cc12 [6-CHLOROFLAVONE] | > 82 µM (inactive) | 22.8 µM (inactive) | 65.5 µM (inactive) | > 100 µM (inactive) | > 84.7 µM (inactive) | > 41.4 µM (inactive) | > 46.5 µM (inactive) | > 56.6 µM (inactive) | 37.7 µM (inactive) | > 86.5 µM (inactive) | 68.2 µM (inactive) | 31.4 µM (inactive) | 50 µM (inactive) | 61.2 µM (inactive) | > 61.8 µM (inactive) | > 67.1 µM (inactive) | 37.4 µM (inactive) | 33.3 µM (inactive) | 46.6 µM (inactive) | 44.2 µM (inactive)
2 | CCc1ccc(NC(=O)NC(=O)c2ccccc2[N+](=O)[O-])cc1Oc1ncc(Cl)cn1 | < 0.0165 µM (active) | < 0.01 µM (active) | 0.0231 µM (active) | < 0.0301 µM (active) | < 0.01 µM (active) | < 0.01 µM (active) | < 0.013 µM (active) | 0.0578 µM (active) | 0.0181 µM (active) | 0.0264 µM (active) | < 0.0164 µM (active) | < 0.01 µM (active) | 1.96 µM (inactive) | 0.0386 µM (active) | 0.0304 µM (active) | < 0.0177 µM (active) | < 0.01 µM (active) | 0.0158 µM (active) | 0.0331 µM (active) | < 0.0222 µM (active)
3 | CCOC(=O)c1ccc(NC(=O)Oc2ccc3c(C)cc(=O)oc3c2)cc1 | 38.5 µM (inactive) | 23.7 µM (inactive) | 28.5 µM (inactive) | 23.1 µM (inactive) | 23 µM (inactive) | 32.1 µM (inactive) | 30.4 µM (inactive) | 37.2 µM (inactive) | 32.9 µM (inactive) | 35.5 µM (inactive) | 29.6 µM (inactive) | 58.6 µM (inactive) | > 100 µM (inactive) | 41.4 µM (inactive) | 34.2 µM (inactive) | 31.8 µM (inactive) | 33.1 µM (inactive) | 45.6 µM (inactive) | 28.2 µM (inactive) | 30.1 µM (inactive)
4 | OC1c2ccccc2[C@@H]2[C@H]1[C@@H](c1ccccc1)C1(Cc3ccccc3C1O)[C@H]2c1ccccc1 (stereo not given in full) | 4.37 µM (inactive) | 3.35 µM (inactive) | 4.75 µM (inactive) | 11.1 µM (inactive) | 7.06 µM (inactive) | 3.85 µM (inactive) | 2.01 µM (inactive) | 9.86 µM (inactive) | 3.92 µM (inactive) | 5.45 µM (inactive) | 10.9 µM (inactive) | 2 µM (inactive) | 16.1 µM (inactive) | 6.37 µM (inactive) | 1.84 µM (inactive) | 6.14 µM (inactive) | 7.52 µM (inactive) | 2.96 µM (inactive) | 3.03 µM (inactive) | 6.75 µM (inactive)
5 | O=NN(CCCl)C(=O)NC1CCCCC1 [LOMUSTINE] | 47 µM (inactive) | 31.3 µM (inactive) | 41 µM (inactive) | 81.1 µM (inactive) | 74.3 µM (inactive) | 18.7 µM (inactive) | 17.3 µM (inactive) | 42.1 µM (inactive) | 31.6 µM (inactive) | 52.2 µM (inactive) | 71.8 µM (inactive) | 35.3 µM (inactive) | 73.1 µM (inactive) | 69.3 µM (inactive) | 41.2 µM (inactive) | 12.7 µM (inactive) | 84.1 µM (inactive) | 16.4 µM (inactive) | 38.8 µM (inactive) | 32 µM (inactive)
6 | CCCCCCCCCCCCCCCCCCNC(=O)C(N)Cc1ccc(OCc2ccccc2)cn1 (stereo not given) | 15.2 µM (inactive) | 17.1 µM (inactive) | 17.9 µM (inactive) | 21.1 µM (inactive) | 17.1 µM (inactive) | 26.5 µM (inactive) | 15.7 µM (inactive) | 21.3 µM (inactive) | 18.5 µM (inactive) | 15.8 µM (inactive) | 22.7 µM (inactive) | 20 µM (inactive) | 15.4 µM (inactive) | 24.1 µM (inactive) | 15.4 µM (inactive) | 16.7 µM (inactive) | 17.3 µM (inactive) | 24.5 µM (inactive) | 21.5 µM (inactive) | 24 µM (inactive)
7 | COC(=O)C1=CC(=O)OC1(OO)c1ccc(Br)cc1 (stereo not given) | > 100 µM (inactive) | > 100 µM (inactive) | > 100 µM (inactive) | > 100 µM (inactive) | > 100 µM (inactive) | > 100 µM (inactive) | 40.3 µM (inactive) | > 100 µM (inactive) | > 100 µM (inactive) | > 100 µM (inactive) | > 100 µM (inactive) | > 100 µM (inactive) | > 100 µM (inactive) | > 100 µM (inactive) | 44.3 µM (inactive) | > 100 µM (inactive) | > 100 µM (inactive) | 65.2 µM (inactive) | 47.1 µM (inactive) | > 100 µM (inactive)
